Results taken from paper PMC6123676, “Androgen receptor degradation by the proteolysis-targeting chimera ARCC-4 outperforms enzalutamide in cellular models of prostate cancer drug resistance” (Communications Biology, 2018).
Where two headings read alike, the source gives them in different places.

Key:
androgen receptor [1] = biological target: T1, androgen receptor (Homo sapiens, UniProt P10275); assay: competition radioligand binding with [3H]R1881 (LNCaP cell lysate); design: gene AR; AR in LNCaP cell lysates
Target sequence in this assay (P10275 whole entry): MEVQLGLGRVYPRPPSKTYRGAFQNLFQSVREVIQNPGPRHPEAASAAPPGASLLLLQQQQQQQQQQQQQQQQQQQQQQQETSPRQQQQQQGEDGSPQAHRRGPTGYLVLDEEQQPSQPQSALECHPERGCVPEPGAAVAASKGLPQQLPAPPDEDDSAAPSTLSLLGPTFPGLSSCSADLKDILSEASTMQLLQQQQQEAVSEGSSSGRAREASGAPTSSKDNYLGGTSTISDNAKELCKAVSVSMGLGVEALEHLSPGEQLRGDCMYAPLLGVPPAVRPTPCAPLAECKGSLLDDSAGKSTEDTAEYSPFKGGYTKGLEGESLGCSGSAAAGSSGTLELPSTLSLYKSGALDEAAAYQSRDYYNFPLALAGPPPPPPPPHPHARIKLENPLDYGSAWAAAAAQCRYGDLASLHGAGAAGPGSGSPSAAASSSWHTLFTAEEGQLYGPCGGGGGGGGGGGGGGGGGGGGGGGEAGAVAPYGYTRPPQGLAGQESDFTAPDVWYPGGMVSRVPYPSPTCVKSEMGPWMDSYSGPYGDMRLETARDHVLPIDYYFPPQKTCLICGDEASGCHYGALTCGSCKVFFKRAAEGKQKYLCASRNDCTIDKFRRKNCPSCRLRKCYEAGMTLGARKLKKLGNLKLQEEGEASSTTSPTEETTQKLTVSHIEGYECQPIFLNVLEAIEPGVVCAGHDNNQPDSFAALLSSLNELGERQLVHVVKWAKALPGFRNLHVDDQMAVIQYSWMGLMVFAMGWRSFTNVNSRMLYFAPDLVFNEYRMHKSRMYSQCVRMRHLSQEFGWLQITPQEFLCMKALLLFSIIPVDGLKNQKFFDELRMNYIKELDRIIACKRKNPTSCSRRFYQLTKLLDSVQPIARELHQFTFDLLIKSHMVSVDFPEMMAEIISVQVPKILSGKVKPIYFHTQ

androgen receptor [2] = biological target: T1, androgen receptor; assay: degradation of AR in VCaP cells, western blot (DC50; Dmax […]); type: cell-based; design: gene AR; endogenous AR in VCaP cells
Target sequence in this assay (P10275 whole entry): as above

androgen receptor [3] = biological target: T1, androgen receptor; design: gene AR
Target sequence in this assay (P10275 whole entry): as above

von Hippel-Lindau (VHL) = biological target: T2, von Hippel-Lindau (VHL) (Homo sapiens, UniProt P40337); assay: AR degradation lost on VHL knockdown and with the non-VHL-binding epimer; type: cell-based
T2 construct: endogenous VHL in VCaP cells; with androgen receptor
T2 sequence (P10275 whole entry): as above
T2 sequence (P40337 whole entry): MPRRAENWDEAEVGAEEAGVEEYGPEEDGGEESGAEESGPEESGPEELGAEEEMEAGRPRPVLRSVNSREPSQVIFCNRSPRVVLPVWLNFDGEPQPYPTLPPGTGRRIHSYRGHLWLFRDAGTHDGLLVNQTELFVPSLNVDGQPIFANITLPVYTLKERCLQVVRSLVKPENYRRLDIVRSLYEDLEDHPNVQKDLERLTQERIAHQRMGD

androgen receptor [4] = biological target: T1, androgen receptor; assay: PROTAC degradation of AR in VCaP cells, western blot (Dmax); type: cell-based; design: gene AR; endogenous AR in VCaP cells; with VHL
Target sequence in this assay (P40337 whole entry): as above
Target sequence in this assay (P10275 whole entry): as the sequence (P10275 whole entry) above

`Cc1ncsc1-c1ccc(CNC(=O)[C@@H]2C[C@H](O)CN2C(=O)[C@@H](NC(=O)COCCCCOc2ccc(-c3ccc(N4C(=S)N(c5ccc(C#N)c(C(F)(F)F)c5)C(=O)C4(C)C)cc3)cc2)C(C)(C)C)cc1` (mixture of isomers) [compound 3, epimer] gave an IC50 (androgen receptor [1]) of 41 nM.

In the case of `CC1(C)C(=O)N(c2ccc(C#N)c(C(F)(F)F)c2)C(=S)N1CCCC(=O)NCCOCCOC(=O)CC12CC3CC(CC(C3)C1)C2` [SARD279], the DC50 (androgen receptor [2]) is reported as 1100 nM.

With `C[C@]1(O)CC[C@H]2[C@@H]3CCC4=CC(=O)CCC4=C3C=C[C@@]21C` [R1881] the “radioligand of the AR binding assay; also out-competes ARCC-4 in VCaP cells” value (androgen receptor [3]) was “AR radioligand binding assay to determine the IC50 values for inhibiting binding between AR and (^3H) R1881”.

In the case of `Cc1ncsc1-c1ccc(CNC(=O)[C@@H]2C[C@@H](O)CN2C(=O)[C@@H](NC(=O)COCCCCOc2ccc(-c3ccc(N4C(=S)N(c5ccc(C#N)c(C(F)(F)F)c5)C(=O)C4(C)C)cc3)cc2)C(C)(C)C)cc1` [2c, ARCC-4], the “AR degradation lost on VHL knockdown and with the non-VHL-binding epimer” value (von Hippel-Lindau (VHL)) is reported as “confirmed that ARCC-4-mediated AR degradation is dependent upon VHL recruitment and binding” and the IC50 (androgen receptor [1]; read-out: IC50) is reported as 36 nM.

`Cc1ncsc1-c1ccc(CNC(=O)[C@@H]2C[C@@H](O)CN2C(=O)[C@@H](NC(=O)COCCOCCOCCOc2ccc(N3C(=S)N(c4ccc(C#N)c(C(F)(F)F)c4)C(=O)C3(C)C)cc2)C(C)(C)C)cc1` [2a] was tested, and the Dmax (androgen receptor [4]) was 47%.
